Assay results: ChEMBL document CHEMBL1140792, “Isothiazolidinone inhibitors of PTP1B containing imidazoles and imidazolines” (Bioorg Med Chem Lett, 2008)

Tests used:
[1] = biological target: T1, Tyrosine-protein phosphatase non-receptor type 2 (Homo sapiens, UniProt P17706); test: Inhibition of TCPTP by pNPP assay
T1 sequence (P17706 whole entry): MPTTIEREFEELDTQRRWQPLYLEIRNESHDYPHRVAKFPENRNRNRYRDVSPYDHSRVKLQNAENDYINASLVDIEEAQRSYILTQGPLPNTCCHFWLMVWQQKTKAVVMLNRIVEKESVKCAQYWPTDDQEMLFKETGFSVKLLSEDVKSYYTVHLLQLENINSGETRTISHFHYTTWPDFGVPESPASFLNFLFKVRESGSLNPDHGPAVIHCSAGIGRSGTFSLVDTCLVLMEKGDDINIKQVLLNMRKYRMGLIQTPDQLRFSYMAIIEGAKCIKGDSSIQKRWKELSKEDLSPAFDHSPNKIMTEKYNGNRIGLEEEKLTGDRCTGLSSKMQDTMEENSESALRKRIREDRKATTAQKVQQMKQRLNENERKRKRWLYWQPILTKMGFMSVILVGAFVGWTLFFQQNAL

[2] = biological target: T2, Tyrosine-protein phosphatase non-receptor type 1 (Homo sapiens, UniProt P18031); test: Inhibition of PTP1B by pNPP assay
T2 sequence (P18031 whole entry): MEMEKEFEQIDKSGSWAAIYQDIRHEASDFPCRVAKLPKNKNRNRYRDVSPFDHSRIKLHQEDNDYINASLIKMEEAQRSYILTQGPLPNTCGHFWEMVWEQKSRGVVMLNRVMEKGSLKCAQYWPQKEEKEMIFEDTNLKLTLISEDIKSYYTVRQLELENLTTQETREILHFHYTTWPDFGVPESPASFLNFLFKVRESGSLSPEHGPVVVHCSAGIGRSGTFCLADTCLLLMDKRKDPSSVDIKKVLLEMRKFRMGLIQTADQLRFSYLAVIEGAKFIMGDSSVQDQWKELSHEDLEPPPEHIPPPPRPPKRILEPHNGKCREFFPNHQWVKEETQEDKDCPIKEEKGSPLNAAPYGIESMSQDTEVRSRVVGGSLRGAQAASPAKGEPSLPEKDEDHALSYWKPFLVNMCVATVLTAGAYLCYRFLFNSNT

[3] = Selectivity for PTP1B over TCPTP

Row | Structure (SMILES) | IC50 [1] [nM] | IC50 [2] [nM] | Ratio IC50 [3]
1 | O=C1CC(c2ccc(CC(NS(=O)(=O)c3cccc(F)c3)c3ncc(CCc4ccccc4)[nH]3)cc2)S(=O)(=O)N1 (configuration not stated) | 100 | 180 | –
2 | C[C@H]1CN=C(C(Cc2ccc(C3CC(=O)NS3(=O)=O)cc2)NS(=O)(=O)c2cccc(C(F)(F)F)c2)N1 (some centres not stated) | 670 | 810 | –
3 | O=C1CC(c2ccc(CC(NS(=O)(=O)c3cccc(C(F)(F)F)c3)c3ncc(CCc4ccccc4)[nH]3)cc2)S(=O)(=O)N1 (configuration not stated) | 170 | 170 | –
4 | Cc1cc(CC(NS(=O)(=O)c2cccc(F)c2)C2=NC[C@@H](COc3cccc(S(C)(=O)=O)c3)N2)ccc1C1CC(=O)NS1(=O)=O (some centres not stated) | 470 | 800 | –
5 | O=C1CC(c2ccc(CC(NS(=O)(=O)c3cccc(C(F)(F)F)c3)c3ncc(-c4ccccc4)[nH]3)cc2)S(=O)(=O)N1 (configuration not stated) | 61 | – | –
6 | COC(=O)c1c(O)cccc1OCCCc1cnc(C(Cc2ccc(C3CC(=O)NS3(=O)=O)c(C)c2)NS(=O)(=O)c2cccc(F)c2)[nH]1 (configuration not stated) | 170 | 350 | –
7 | C[C@@H]1CN=C(C(Cc2ccc(C3CC(=O)NS3(=O)=O)cc2)NS(=O)(=O)c2cccc(C(F)(F)F)c2)N1 (some centres not stated) | 420 | 540 | –
8 | NC(=O)C(Cc1ccc(C2CC(=O)NS2(=O)=O)cc1)NS(=O)(=O)c1cccc(C(F)(F)F)c1 (configuration not stated) | 5000 | 5030 | –
9 | O=C1CC(c2ccc(CC(NS(=O)(=O)c3cccc(F)c3)C3=NC[C@@H](CCc4ccccc4)N3)cc2)S(=O)(=O)N1 (some centres not stated) | 68 | 130 | –
10 | Cc1cc(CC(NS(=O)(=O)c2cccc(F)c2)c2ncc(CCCOc3cccc(O)c3C(=O)O)[nH]2)ccc1C1CC(=O)NS1(=O)=O (configuration not stated) | 170 | 120 | –
11 | O=C1CC(c2ccc(CC(NS(=O)(=O)c3cccc(F)c3)C3=NC[C@@H](Cc4ccccc4)N3)cc2)S(=O)(=O)N1 (some centres not stated) | 140 | 210 | –
12 | O=C1CC(c2ccc(CC(NS(=O)(=O)c3cccc(C(F)(F)F)c3)c3ncc[nH]3)cc2)S(=O)(=O)N1 (configuration not stated) | 270 | 240 | –
13 | COC(=O)c1c(O)cccc1OCCCC[C@@H]1CN=C(C(Cc2ccc(C3CC(=O)NS3(=O)=O)c(C)c2)NS(=O)(=O)c2cccc(F)c2)N1 (some centres not stated) | 65 | 110 | –
14 | O=C1CC(c2ccc(CC(NS(=O)(=O)c3cccc(C(F)(F)F)c3)C3=NCCN3)cc2)S(=O)(=O)N1 (configuration not stated) | 500 | 700 | –
15 | Cc1cc(CC(NS(=O)(=O)c2cccc(F)c2)c2ncc(CCCCOc3cccc(O)c3C(=O)O)[nH]2)ccc1C1CC(=O)NS1(=O)=O (configuration not stated) | 46 | 32 | –
16 | O=C1CC(c2ccc(CC(NS(=O)(=O)c3cccc(C(F)(F)F)c3)C3=NC[C@H](Cc4ccccc4)N3)cc2)S(=O)(=O)N1 (some centres not stated) | 1100 | 1300 | –
17 | O=C1CC(c2ccc(CC(NS(=O)(=O)c3cccc(F)c3)c3nc(-c4ccccc4)c[nH]3)cc2)S(=O)(=O)N1 (configuration not stated) | 90 | 160 | –

Row | Structure (SMILES) | IC50 [1] [nM] | IC50 [2] [nM] | Ratio IC50 [3]
18 | O=C1CC(c2ccc(CC(NS(=O)(=O)c3cccc(C(F)(F)F)c3)c3ncc(CCCc4ccccc4)[nH]3)cc2)S(=O)(=O)N1 (configuration not stated) | 51 | 52 | –
19 | COC(=O)c1c(O)cccc1OCCCCc1cnc(C(Cc2ccc(C3CC(=O)NS3(=O)=O)c(C)c2)NS(=O)(=O)c2cccc(F)c2)[nH]1 (configuration not stated) | 170 | 160 | –
20 | O=C1CC(c2ccc(CC(NS(=O)(=O)c3cccc(C(F)(F)F)c3)C3=NC[C@@H](c4ccccc4)N3)cc2)S(=O)(=O)N1 (some centres not stated) | 430 | 660 | –
21 | O=C1CC(c2ccc(CC(NS(=O)(=O)c3cccc(C(F)(F)F)c3)c3ncc(CCCCc4ccccc4)[nH]3)cc2)S(=O)(=O)N1 (configuration not stated) | 160 | 200 | –
22 | O=C1CC(c2ccc(CC(NS(=O)(=O)c3cccc(C(F)(F)F)c3)c3nc4ccccc4[nH]3)cc2)S(=O)(=O)N1 (configuration not stated) | 43 | – | –
23 | O=C1CC(c2ccc(CC(NS(=O)(=O)c3cccc(F)c3)c3ncc(CCCc4ccccc4)[nH]3)cc2)S(=O)(=O)N1 (configuration not stated) | 24 | – | –
24 | O=C1CC(c2ccc(CC(NS(=O)(=O)c3cccc(F)c3)c3ncc(CCCCc4ccccc4)[nH]3)cc2)S(=O)(=O)N1 (configuration not stated) | 110 | 260 | –
25 | O=C1CC(c2ccc(CC(NS(=O)(=O)c3cccc(C(F)(F)F)c3)c3ncc(Cc4ccccc4)[nH]3)cc2)S(=O)(=O)N1 (configuration not stated) | 230 | – | –
26 | Cc1cc(CC(NS(=O)(=O)c2cccc(F)c2)C2=NC[C@@H](CCCCOc3cccc(O)c3C(=O)O)N2)ccc1C1CC(=O)NS1(=O)=O (some centres not stated) | 46 | 22 | 2
27 | O=C1CC(c2ccc(CC(NS(=O)(=O)c3cccc(C(F)(F)F)c3)C3=NC[C@@H](Cc4ccccc4)N3)cc2)S(=O)(=O)N1 (some centres not stated) | 120 | 150 | –
28 | O=C1CC(c2ccc(CC(NS(=O)(=O)c3cccc(F)c3)c3ncc(Cc4ccccc4)[nH]3)cc2)S(=O)(=O)N1 (configuration not stated) | 270 | 250 | –
29 | O=C1CC(c2ccc(CC(NS(=O)(=O)c3cccc(F)c3)C3=NC[C@@H](Cc4ccccc4F)N3)cc2)S(=O)(=O)N1 (some centres not stated) | 38 | – | –
30 | Cc1cc(CC(NS(=O)(=O)c2cccc(F)c2)C2=NC[C@@H](CCOc3cccc(S(C)(=O)=O)c3)N2)ccc1C1CC(=O)NS1(=O)=O (some centres not stated) | 25 | 23 | –
31 | O=C1CC(c2ccc(CC(NS(=O)(=O)c3cccc(C(F)(F)F)c3)C3=NC[C@H](c4ccccc4)N3)cc2)S(=O)(=O)N1 (some centres not stated) | 2070 | 2900 | –
32 | CC1(C)CN=C(C(Cc2ccc(C3CC(=O)NS3(=O)=O)cc2)NS(=O)(=O)c2cccc(C(F)(F)F)c2)N1 (configuration not stated) | 700 | 930 | –
33 | Cc1cc(CC(NS(=O)(=O)c2cccc(F)c2)C2=NC[C@@H](CCCOc3cccc(S(C)(=O)=O)c3)N2)ccc1C1CC(=O)NS1(=O)=O (some centres not stated) | 84 | 160 | –
